Assay results published in PMC3914206.

Key:
Type in all cases: binding
panel of 442 kinases [1] = molecular target: T1, panel of 442 kinases (Homo sapiens, UniProt O43318); details: kinase TAK1; compound concentration 10 µM
T1 construct: purchased KINOMEscan
T1 sequence (O43318 1-606): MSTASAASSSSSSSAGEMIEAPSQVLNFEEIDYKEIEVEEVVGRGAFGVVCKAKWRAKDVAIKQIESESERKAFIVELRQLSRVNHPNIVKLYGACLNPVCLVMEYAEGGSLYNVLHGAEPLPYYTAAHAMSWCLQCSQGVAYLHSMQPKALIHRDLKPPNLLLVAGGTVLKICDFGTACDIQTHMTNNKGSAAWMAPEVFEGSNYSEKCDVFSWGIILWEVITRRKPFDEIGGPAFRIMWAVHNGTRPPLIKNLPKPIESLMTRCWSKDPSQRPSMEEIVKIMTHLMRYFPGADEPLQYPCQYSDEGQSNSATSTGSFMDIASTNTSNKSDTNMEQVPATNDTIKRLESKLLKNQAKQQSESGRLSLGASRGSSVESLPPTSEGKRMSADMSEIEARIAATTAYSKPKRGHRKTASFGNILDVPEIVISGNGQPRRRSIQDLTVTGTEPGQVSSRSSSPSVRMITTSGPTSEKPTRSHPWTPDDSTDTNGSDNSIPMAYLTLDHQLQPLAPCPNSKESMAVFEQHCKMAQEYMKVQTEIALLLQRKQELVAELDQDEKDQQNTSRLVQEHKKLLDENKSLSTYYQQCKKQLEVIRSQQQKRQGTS
From the text: (§1) We assessed the selectivity of members of this scaffold using the KINOMEscan methodology across a near comprehensive panel of 442 kinases [[18,27]].

panel of 442 kinases [2] = molecular target: T2, panel of 442 kinases (Homo sapiens, UniProt P37023); details: Compound Concentration 10 µM
T2 construct: purchased KINOMEscan
From the text: as §1

panel of 442 kinases [3] = molecular target: T3, panel of 442 kinases (Homo sapiens, UniProt Q13131); details: Compound Concentration 10 µM
T3 construct: purchased KINOMEscan
From the text: as §1

T2 sequence (P37023 22-503): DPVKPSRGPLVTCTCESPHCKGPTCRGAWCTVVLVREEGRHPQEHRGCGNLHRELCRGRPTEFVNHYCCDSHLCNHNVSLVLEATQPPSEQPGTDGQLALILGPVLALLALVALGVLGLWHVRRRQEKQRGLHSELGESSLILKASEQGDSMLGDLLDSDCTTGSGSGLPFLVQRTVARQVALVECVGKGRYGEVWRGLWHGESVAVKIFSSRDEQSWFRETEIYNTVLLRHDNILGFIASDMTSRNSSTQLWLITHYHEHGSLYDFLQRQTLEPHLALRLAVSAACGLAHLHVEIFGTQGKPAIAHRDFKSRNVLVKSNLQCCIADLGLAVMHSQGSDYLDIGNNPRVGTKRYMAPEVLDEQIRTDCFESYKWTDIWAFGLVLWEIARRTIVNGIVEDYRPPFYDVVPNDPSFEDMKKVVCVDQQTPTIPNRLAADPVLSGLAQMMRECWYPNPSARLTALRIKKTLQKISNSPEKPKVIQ
T3 sequence (Q13131 whole entry): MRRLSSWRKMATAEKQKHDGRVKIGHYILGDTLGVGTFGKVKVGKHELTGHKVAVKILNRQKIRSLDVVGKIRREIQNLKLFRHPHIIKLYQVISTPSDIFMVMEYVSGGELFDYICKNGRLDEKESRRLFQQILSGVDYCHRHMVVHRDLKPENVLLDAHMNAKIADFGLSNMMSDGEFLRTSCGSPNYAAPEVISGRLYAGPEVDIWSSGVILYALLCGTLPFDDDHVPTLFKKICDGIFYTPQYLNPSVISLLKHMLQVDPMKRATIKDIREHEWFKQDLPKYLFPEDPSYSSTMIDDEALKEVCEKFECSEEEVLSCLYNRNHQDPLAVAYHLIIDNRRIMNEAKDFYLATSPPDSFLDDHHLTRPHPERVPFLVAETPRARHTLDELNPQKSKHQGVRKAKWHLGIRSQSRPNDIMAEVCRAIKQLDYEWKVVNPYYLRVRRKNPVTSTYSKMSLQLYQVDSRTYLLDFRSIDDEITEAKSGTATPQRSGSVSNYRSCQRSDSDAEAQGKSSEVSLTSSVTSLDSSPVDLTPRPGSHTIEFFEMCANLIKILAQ

SMILES	% Ctrl, TAK1 (panel of 442 kinases [1])	KINOMEscan: ACVRL1 (panel of 442 kinases [2])	KINOMEscan: AMPK-alpha1 (panel of 442 kinases [3])
CCOc1cc(C(=O)N2CCC(N3CCN(C)CC3)CC2)ccc1Nc1ncc2c(n1)N(C1CCCC1)c1ccccc1C(=O)N2C [Compound 26]	100 % Ctrl	100	100
COc1cc(C(=O)N2CCC(N3CCN(C)CC3)CC2)ccc1Nc1ncc2c(n1)N(C1CCCC1)c1ccccc1C(=O)N2C [Compound 25, 11-cyclopentyl-2-((2-methoxy-4-(4-(4-methylpiperazin-1-yl)piperidine-1-carbonyl)phenyl)amino)-5-methyl-5H-benzo[e]pyrimido[5,4-b][1,4]diazepin-6(11H)-one]	100 % Ctrl	100	48
COc1cc(C(=O)N2CCC(N3CCN(C)CC3)CC2)ccc1Nc1ncc2c(n1)N1CCc3cccc(c31)C(=O)N2C [Compound 24]	100 % Ctrl	–	–
COc1cc(C(=O)N2CCC(N3CCN(C)CC3)CC2)ccc1Nc1ncc2c(n1)N(C)c1ccccc1C(=O)N2C [15 (LRRK2-IN-1)]	98 % Ctrl	100	51
